Measured values reported in ChEMBL document CHEMBL1201862, “PubChem BioAssay data set” (2004).
Active and inactive are the calls of the source.

Experiments:
[1] = target: T1, Tyrosine-protein phosphatase non-receptor type 7 (Homo sapiens, UniProt P35236); assay: SAR analysis of chemical inhibitors of HePTP using a Fluorescent assay - Set 2. [Related pubchem assays (depositor defined):AID1059, AID1077, AID1661, AID2085, AID521]; format: functional
T1 sequence (P35236 whole entry): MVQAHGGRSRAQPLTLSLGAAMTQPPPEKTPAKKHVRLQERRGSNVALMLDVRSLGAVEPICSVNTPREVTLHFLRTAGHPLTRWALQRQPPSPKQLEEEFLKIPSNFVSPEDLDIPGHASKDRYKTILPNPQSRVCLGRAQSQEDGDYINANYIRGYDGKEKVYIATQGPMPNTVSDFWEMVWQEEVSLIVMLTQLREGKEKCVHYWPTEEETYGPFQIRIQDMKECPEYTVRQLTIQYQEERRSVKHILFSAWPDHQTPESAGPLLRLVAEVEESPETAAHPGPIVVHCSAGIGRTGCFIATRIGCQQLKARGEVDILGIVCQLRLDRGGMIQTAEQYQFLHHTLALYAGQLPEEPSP

[2] = target: Dual specificity protein phosphatase 3 (Homo sapiens, UniProt P51452); assay: SAR VHR1 Fluorescent Assay for In Vitro dose response studies Set 2. [Related pubchem assays (depositor defined):AID1654, AID1661, AID1878]; format: functional
Chain of Dual specificity protein phosphatase 3 (P51452 whole entry): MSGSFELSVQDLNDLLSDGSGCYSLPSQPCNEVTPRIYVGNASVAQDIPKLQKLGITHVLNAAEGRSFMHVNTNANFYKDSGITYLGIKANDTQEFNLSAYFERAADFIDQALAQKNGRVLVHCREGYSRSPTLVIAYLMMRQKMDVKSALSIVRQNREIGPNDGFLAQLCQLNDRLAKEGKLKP

Cannabinoid receptor 2 [3] = target: T2, Cannabinoid receptor 2 (Homo sapiens, UniProt P34972); assay: SAR analysis of agonists of the Cannabinoid Receptor 2 using an Image-Based Assay - Set 2. [Related pubchem assays (depositor defined):AID1961, AID1965]; format: functional
T2 sequence (P34972 whole entry): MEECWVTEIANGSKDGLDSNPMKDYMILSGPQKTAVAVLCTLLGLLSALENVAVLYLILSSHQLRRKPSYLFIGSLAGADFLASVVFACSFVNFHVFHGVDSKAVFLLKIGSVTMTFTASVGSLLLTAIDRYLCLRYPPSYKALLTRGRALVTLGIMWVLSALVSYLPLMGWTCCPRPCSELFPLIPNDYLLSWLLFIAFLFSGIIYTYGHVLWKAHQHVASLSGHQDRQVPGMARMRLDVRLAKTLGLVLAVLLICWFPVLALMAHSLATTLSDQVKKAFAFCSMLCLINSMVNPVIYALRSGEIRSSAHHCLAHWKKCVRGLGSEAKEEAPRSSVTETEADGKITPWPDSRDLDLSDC

[4] = target: T3, G-protein coupled receptor 55 (Homo sapiens, UniProt Q9Y2T6); assay: SAR analysis of selective Agonists of GPR55 using an Image-Based Assay - Set 2. [Related pubchem assays (depositor defined):AID1961, AID1965]; format: functional
T3 sequence (Q9Y2T6 whole entry): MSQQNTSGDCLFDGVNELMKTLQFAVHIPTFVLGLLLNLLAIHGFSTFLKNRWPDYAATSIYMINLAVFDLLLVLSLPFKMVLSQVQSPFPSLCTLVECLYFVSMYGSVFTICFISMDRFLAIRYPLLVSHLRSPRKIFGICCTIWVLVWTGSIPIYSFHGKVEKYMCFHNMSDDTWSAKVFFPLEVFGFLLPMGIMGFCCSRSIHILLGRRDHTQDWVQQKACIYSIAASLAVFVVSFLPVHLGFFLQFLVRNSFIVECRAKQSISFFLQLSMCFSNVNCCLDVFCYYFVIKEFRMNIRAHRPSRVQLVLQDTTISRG

Cannabinoid receptor 1 [5] = target: T4, Cannabinoid receptor 1 (Homo sapiens, UniProt P21554); assay: SAR analysis of antagonists of the Cannabinoid Receptor 1 using an Image-Based Assay - Set 3. [Related pubchem assays (depositor defined):AID1961, AID1965]; format: functional
T4 sequence (P21554 whole entry): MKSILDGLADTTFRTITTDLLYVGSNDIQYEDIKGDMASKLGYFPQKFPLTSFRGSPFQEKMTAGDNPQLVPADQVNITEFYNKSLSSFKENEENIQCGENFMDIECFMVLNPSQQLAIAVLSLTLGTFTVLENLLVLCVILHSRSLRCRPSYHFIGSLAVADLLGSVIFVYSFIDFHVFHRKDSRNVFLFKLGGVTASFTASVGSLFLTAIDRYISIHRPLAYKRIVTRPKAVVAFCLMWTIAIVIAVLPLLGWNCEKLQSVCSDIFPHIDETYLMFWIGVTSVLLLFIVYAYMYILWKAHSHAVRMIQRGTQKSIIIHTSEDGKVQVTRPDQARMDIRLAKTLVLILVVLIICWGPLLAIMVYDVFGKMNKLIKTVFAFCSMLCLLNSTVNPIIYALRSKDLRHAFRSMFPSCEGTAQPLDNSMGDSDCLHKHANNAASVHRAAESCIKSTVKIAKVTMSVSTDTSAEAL

[6] = target: T5, G-protein coupled receptor 35 (Homo sapiens, UniProt Q9HC97); assay: SAR analysis of Agonists of the GPR35 Receptor using an Image-Based Assay - Set 3. [Related pubchem assays (depositor defined):AID1961, AID1965]; format: functional
T5 sequence (Q9HC97 whole entry): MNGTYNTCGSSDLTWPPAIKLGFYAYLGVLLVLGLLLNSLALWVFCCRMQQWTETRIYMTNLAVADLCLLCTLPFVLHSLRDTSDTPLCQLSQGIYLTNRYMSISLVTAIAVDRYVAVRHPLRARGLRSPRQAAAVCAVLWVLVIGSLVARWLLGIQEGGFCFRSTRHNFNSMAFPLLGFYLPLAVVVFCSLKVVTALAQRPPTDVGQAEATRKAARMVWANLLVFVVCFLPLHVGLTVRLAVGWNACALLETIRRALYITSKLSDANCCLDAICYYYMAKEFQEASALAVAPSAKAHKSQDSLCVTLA

Cannabinoid receptor 2 [7] = target: T2, Cannabinoid receptor 2; assay: SAR analysis of antagonists of the Cannabinoid Receptor 2 using an Image-Based Assay - Set 2. [Related pubchem assays (depositor defined):AID1961, AID1965]; format: functional
[8] = target: T5, G-protein coupled receptor 35; assay: SAR analysis of Antagonists of the GPR35 Receptor using an Image-Based Assay - Set 4. [Related pubchem assays (depositor defined):[…]]; format: functional
Cannabinoid receptor 1 [9] = target: T4, Cannabinoid receptor 1; assay: SAR analysis of agonists of the Cannabinoid Receptor 1 using an Image-Based Assay - Set 3. [Related pubchem assays (depositor defined):AID1961, AID1965]; format: functional
[10] = target: Type-1 angiotensin II receptor (Homo sapiens, UniProt P30556); assay: AT1 receptor agonists, dose response, selectivity assay for APJ receptor agonist project, cell-based, uHTS hits (AID 488865); format: functional;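 further: beta-arrestin recruitment to AT1 measured by enzyme fragment complementation luminescence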
Chain of Type-1 angiotensin II receptor (P30556 whole entry, the tested form may be a part): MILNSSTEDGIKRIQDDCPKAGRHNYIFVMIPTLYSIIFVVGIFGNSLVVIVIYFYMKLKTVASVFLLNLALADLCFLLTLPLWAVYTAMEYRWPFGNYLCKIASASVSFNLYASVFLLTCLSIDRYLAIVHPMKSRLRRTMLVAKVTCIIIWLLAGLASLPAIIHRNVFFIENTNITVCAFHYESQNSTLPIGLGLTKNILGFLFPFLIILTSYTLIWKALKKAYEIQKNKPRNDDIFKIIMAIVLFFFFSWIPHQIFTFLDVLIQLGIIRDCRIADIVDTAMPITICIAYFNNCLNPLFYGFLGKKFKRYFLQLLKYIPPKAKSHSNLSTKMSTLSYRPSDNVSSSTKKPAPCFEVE

[11] = target: T3, G-protein coupled receptor 55; assay: GPR55 antagonists blocking LPI-driven arrestin recruitment, primary screen, imaging, U2OS, beta-arrestin-GFP, LPI agonist (AID 2013); format: functional;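 further: antagonist potency measured as reduced agonist-driven arrestin aggregation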
Streptokinase A = target: T6, Streptokinase A (Streptococcus pyogenes serotype M1, UniProt P10520); assay: S. pyogenes streptokinase expression inhibitors, potency, dose response, plasminogen activation absorbance, OD405 (AID 1914); format: functional, Streptococcus pyogenes M1 GAS;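 further: secreted streptokinase activity via plasminogen activation per viability signal from cell pellet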
T6 sequence (P10520 whole entry): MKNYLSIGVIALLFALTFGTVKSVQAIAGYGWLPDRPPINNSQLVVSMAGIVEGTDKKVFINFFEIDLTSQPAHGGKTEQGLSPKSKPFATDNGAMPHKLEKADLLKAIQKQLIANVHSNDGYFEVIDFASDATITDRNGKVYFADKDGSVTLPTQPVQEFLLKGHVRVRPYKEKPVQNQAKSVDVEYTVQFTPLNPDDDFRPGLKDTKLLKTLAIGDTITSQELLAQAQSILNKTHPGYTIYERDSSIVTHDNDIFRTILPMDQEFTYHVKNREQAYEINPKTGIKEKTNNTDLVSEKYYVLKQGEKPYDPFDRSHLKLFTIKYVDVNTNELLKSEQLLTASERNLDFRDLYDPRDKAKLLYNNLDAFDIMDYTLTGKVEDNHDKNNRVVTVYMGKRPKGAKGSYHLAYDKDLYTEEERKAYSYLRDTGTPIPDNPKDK

Streptococcus = assay: Group A Streptococcus viability loss, dose response, counter-screen for streptokinase expression inhibitor project, luminescence, BacTiterGlo (AID 1915); format: functional, organism-based; conditions: Streptococcus;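 further: potency for reduction of bacterial viability or growth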
[12] = tested on: Streptococcus sp. 'group A'; assay: growth inhibition of control SK(-) GAS strain, dose response, counter-screen for streptokinase expression inhibitor project, luminescence, kanamycin, BacTiterGlo, confirmation (AID 1900); format: functional, organism-based; conditions: Streptococcus sp. 'group A'
Hexokinase = Hexokinase (Trypanosoma brucei, UniProt Q38C41); assay: Confirmation assay for inhibitors of Trypanosoma brucei hexokinase 1-Analogue-first series. [Related pubchem assays (depositor defined):AID1430, AID1632, AID2516, AID2560, AID2579, AID2600, AID449725, AID492951]; format: functional
Chain of Hexokinase (Q38C41 whole entry): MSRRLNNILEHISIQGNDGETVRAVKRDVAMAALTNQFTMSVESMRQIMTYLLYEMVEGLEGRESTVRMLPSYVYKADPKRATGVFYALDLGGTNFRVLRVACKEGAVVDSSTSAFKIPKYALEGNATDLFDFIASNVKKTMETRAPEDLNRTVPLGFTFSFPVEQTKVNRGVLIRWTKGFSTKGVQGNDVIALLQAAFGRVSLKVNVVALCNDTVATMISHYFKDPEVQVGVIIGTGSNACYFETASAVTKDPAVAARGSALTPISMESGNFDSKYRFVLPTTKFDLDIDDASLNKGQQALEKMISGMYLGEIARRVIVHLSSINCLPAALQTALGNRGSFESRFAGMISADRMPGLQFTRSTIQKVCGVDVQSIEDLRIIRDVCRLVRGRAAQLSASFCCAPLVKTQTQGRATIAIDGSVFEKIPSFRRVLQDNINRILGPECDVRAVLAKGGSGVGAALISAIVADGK

CAAX prenyl protease 2 [13] = target: T7, CAAX prenyl protease 2 (Homo sapiens, UniProt Q9Y256); assay: human Rce1 protease inhibitors, dose response, biochemical, yeast membranes, quenched-peptide fluorescence, cherry-pick (AID 588849)
T7 sequence (Q9Y256 whole entry): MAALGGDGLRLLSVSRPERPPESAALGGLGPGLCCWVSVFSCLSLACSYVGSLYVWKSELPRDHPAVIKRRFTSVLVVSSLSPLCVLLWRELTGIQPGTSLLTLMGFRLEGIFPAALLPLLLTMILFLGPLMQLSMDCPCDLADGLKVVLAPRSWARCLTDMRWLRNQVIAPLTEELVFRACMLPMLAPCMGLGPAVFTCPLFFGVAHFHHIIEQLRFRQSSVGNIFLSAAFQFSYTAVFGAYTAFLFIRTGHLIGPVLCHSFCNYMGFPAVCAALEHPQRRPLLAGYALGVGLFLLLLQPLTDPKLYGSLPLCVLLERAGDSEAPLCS

CAAX prenyl protease 2 [14] = target: CAAX prenyl protease 2 (Saccharomyces cerevisiae S288c, UniProt Q03530); format: biochemical
Chain of CAAX prenyl protease 2 (Saccharomyces cerevisiae S288c, UniProt Q03530) (Q03530 whole entry): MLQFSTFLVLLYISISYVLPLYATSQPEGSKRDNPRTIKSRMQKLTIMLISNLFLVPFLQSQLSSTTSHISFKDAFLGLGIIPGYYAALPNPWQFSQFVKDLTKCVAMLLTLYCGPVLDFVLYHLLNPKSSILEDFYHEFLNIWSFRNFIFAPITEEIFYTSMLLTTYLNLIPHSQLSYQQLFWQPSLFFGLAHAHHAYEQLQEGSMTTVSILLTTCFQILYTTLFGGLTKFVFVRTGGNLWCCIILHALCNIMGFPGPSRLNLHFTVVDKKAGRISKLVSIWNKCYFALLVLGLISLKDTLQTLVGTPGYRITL

Structure (SMILES): COc1ccc(N2CCN(C(=O)Nc3ccc(S(N)(=O)=O)cc3)CC2)cc1
- IC50 [1]: 51 µM (active)
- IC50 [2]: > 100 µM (inactive)

Structure (SMILES): Cc1cccc(N2CCN(C(=O)c3cc(S(=O)(=O)N(C)C)ccc3Cl)CC2)c1C
- EC50 (Cannabinoid receptor 2 [3]): > 32 µM (inactive)
- EC50 [4]: 1.53 µM (active)
- IC50 (Cannabinoid receptor 1 [5]): 15.6 µM (inactive)
- EC50 [6]: > 32 µM (inactive)
- IC50 (Cannabinoid receptor 2 [7]): > 32 µM (inactive)
- IC50 [8]: > 32 µM (inactive)
- EC50 (Cannabinoid receptor 1 [9]): > 32 µM (inactive)

Structure (SMILES): CCCCC1=CC2=CC(=O)C(C)(OC(=O)CC)C(=O)C2=CN1C1CCCCC1 (configuration not stated)
- EC50 [10]: > 100 µM (inactive)

Structure (SMILES): c1ccc2c(-c3c[nH]c4ccccc34)c3ccccc3nc2c1
- IC50 [11]: 4.83 µM (active)
- EC50 (Streptokinase A): > 150 µM (not active)
- EC50 (Streptococcus): 15.8 µM (active)
- EC50 [12]: 8.94 µM (active)

Structure (SMILES): COc1ccc(C(=O)NC(C(=O)O)c2ccccc2)cc1 (configuration not stated)
- IC50 (Hexokinase): > 25 µM (inactive)

Structure (SMILES): CN1c2ccccc2-c2nc3ccccc3n2C1c1ccncc1 (configuration not stated)
- AC50 (CAAX prenyl protease 2 [13]): 2.65 µM (active)
- AC50 (CAAX prenyl protease 2 [14]): 68.9 µM (active)
